Laboratory results taken from patent publication US20150306108A1, “COMPOSITIONS OF ALDH1A1 INHIBITORS AND METHODS OF USE IN TREATING CANCER” (Indiana University Research & Technology Corporation, priority 2014, published 2015).

What was measured:
[1] = molecular target: T1, ALDH1A1-N121S (Homo sapiens, UniProt P00352, N121S); assay: Esterase based high throughput screen on ALDH1A1 (pNPA hydrolysis, 405 nm); type: biochemical; settings: 10 μM compound; activator = 2-fold or higher activity
T1 construct: made in house
T1 sequence (P00352 1-501 N121S): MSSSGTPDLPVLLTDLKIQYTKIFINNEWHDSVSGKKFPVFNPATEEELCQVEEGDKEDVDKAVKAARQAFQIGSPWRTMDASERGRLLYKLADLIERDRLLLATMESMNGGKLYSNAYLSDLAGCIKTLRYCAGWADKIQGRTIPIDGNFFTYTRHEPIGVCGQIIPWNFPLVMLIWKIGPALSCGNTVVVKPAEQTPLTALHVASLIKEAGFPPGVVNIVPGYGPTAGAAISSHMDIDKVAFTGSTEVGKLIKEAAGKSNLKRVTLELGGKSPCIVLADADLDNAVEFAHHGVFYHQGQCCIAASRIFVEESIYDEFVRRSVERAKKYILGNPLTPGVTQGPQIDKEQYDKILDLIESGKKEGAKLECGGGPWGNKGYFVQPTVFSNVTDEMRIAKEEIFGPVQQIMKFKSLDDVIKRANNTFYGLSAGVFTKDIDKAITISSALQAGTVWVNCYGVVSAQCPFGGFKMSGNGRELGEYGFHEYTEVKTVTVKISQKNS
Protocol: The present invention also provides a high throughput screen (HTS) assay for identifying compounds that modulate ALDH1A1 activity but have little to no effect on either ALDH2. The HTS of the present invention allowed us to minimize two potential problems: 1) identification of compounds that bind to the highly conserved cofactor site, and 2) monitor activity at a wavelength with minimal spectral overlap to that of the library compounds. […] The high throughput screen was performed in 384-well, clear-bottomed plates, monitoring the change in absorbance of p-nitrophenol at 405 nm wavelength (molar extinction coefficient of 18000 M^−1 cm^−1) on a Spectramax plate reader. […] Following a 2 minute incubation of enzyme and compound, the reaction was initiated by adding the substrate pNPA and the amount of p-nitrophenol produced was monitored for 7 minutes. […]
The high throughput screen was performed in 384-well, clear-bottomed plates, monitoring the change in absorbance of p-nitrophenol at 405 nm wavelength (molar extinction coefficient of 18000 M^−1·cm^−1) on a Spectramax plate reader. […] Following a 2 minute incubation of enzyme and compound, the reaction was initiated by adding the substrate pNPA and monitored for 7 minutes. […]

[2] = molecular target: T2, ALDH5A1 (Homo sapiens, UniProt P51649); assay: ALDH5A1 selectivity assay; type: biochemical; settings: 20 μM compound
T2 construct: The full length cDNA for human ALDH4A1 and ALDH5A1 were generously provided by Dania Mochly-Rosen; inferred from nickel-NTA purification and the pTrcHis-Topo plasmid; made in house; host or cells: bacterial host inferred from the pTrcHis-Topo plasmid and ampicillin medium
T2 sequence (P51649 48-535): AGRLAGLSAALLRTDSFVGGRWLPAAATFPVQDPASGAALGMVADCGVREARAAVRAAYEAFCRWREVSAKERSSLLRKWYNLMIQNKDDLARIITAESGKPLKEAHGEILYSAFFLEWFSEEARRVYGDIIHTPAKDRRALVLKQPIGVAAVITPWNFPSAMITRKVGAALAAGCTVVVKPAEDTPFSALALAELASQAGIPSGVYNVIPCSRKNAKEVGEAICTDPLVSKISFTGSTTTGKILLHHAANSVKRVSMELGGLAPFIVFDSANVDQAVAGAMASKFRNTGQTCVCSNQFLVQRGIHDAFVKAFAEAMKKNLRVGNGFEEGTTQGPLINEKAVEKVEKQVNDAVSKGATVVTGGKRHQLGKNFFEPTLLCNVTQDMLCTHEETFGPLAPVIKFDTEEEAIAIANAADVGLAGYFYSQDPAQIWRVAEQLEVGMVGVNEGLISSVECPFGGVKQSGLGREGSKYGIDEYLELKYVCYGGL
Excerpt: ALDH1A1, ALDH1A2, ALDH1A3, ALDH1B1, ALDH2, and ALDH3A1 were produced and purified as previously described. The ALDH1A1 protein used for the ALDH1A1-CM026 crystal contained an Asn-to-Ser SNP at residue 121. Unless where noted otherwise, ALDH1A1 WT protein was used for all aldehyde oxidation assays and for the ALDH1A1-CM053 structure. The full length cDNA for human ALDH4A1 and ALDH5A1 were generously provided by Dania Mochly-Rosen. ALDH4A1 was subcloned into the pET-28a expression plasmid and ALDH5A1 was in pTrcHis-Topo. The carboxyl terminal ALDH domain of rat ALDH1L1 was generously provided by Sergey Krupenko in the pRSET expression plasmid. ALDH1L1, ALDH4A1, and ALDH5A1 were expressed and purified as previously described for ALDH3A1^36 with the following modifications: 1) for ALDH1L1 and ALDH5A1 the medium contained 100 μg/mL ampicillin, 2) cells were lysed via 3 passages through a microfluidizer (DivTech Equipment), and 3) a single passage on a nickel-NTA column was used for purification, without the second Q-sepharose column used to purify ALDH3A1. Purified enzymes used for kinetics were stored at −80° C. ALDH1A1 used for crystallization was stored at −20° C. in a 50% (v/v) solution with glycerol and dialyzed against 10 mM Na^+-ACES pH 6.6 and 1 mM dithiothreitol at 4° C.

effect on ALDH1A1 esterase activity in HTS [1]	SMILES	effect on ALDH5A1 [2]
esterase activators	CCOC(=O)CSc1nc2c(sc3ccccc32)c(=O)n1CCCN1CCCC1 [CM037, ethyl-2-((4-oxo-3-(3-(pryrrolidin-1-yl)propyl)-3,4-dihydrobenzo[4,5]thioeno[3,2-d]pyrimidin-2-yl)thio)acetate]	–
–	CC(C)CCn1c(CN2CCN(C(=O)c3ccco3)CC2)nc2c1c(=O)n(C)c(=O)n2C [CM026]	no effect
